# Data published in patent publication US11632953B2, “Method for controlling hematophagous or sap-feeding arthropods” (Board of Supervisors of Louisiana State University and …, priority 2016, dated 2023).
# Entries after “also recorded” stand apart in the source; their conditions may differ.
# What was measured:
# [1] = tested on: Ae. aegypti; assay: topical toxicity bioassay in adult female Ae. aegypti; format: in vivo, Aedes aegypti; conditions: 24 h
# Experimental: Topical toxicity bioassays in adult female Ae. aegypti (LVP and PR strains) were performed. […] A solvent-only treatment was included in each experiment as a negative control. Treated mosquitoes were transferred to small cages with access to 10% sucrose and held under rearing conditions for 24 h. The efficacy of a dose was measured as the percentage of treated mosquitoes in a cage that were flightless or dead at 24 h. Four to eight replicates of 10 mosquitoes were performed per dose. The ED50 values were determined using a non-linear curve fit analysis (log [inhibitor] vs. response variable-slope) in Prism 6 (Graphpad Software).
# Six replicate experiments of 10 mosquitoes each were performed.
# [2] = tested on: Drosophila melanogaster; assay: whole plant or invertebrate; conditions: for mortality in CAFE assay: 200 μM VU041, 700 μM VU937; for reduction of total volume of sucrose solution ingested: 100 μM fluphenazine, 200 μM VU041
# Experimental: A capillary feeding assay (CAFE) was used to quantify the volume of sucrose solution consumed over a period of time; it was performed essentially as described in W. W. Ja, G. B. Carvalho, E. M. Mak, N. N. de la Rosa, A. Y. Fang, J. C. Liong, T. Brummel, S. Benzer, Prandiology of Drosophila and the CAFE assay. Proceedings of the National Academy of Sciences of the United States of America 104, 8253-8256 (2007); published online EpubMay 15 (10.1073/pnas.0702726104). […] One adult fly was placed into a 2 mL glass vial with a screw lid that was pierced with a glass microcapillary tube having a truncated 200-0 pipette tip. The microcapillary tubes contained 5% (wt/vol) sucrose solution with a 5 μl mineral oil overlay to minimize evaporation. […] Concentrations of 100 μM dopamine and 100 μM fluphenazine were used to determine the influence of those agents on fly feeding. […] All dead flies were excluded from all time points of the study regardless of the time of death. Mean (n>25) values are shown in all figure panels, depicting total consumption.
# Times spent feeding in Kir1 and GFP genetic knockdown studies were compared to control values for each day using one-way ANOVA with a Dunns multiple comparisons post-test. Statistical significance for all studies was P<0.05.
# [3] = tested on: An. gambiae; assay: topical toxicity bioassay in adult female An. gambiae; format: in vivo, Anopheles gambiae; conditions: for ED50 (95% confidence limits), Akron Strain / ED50 (95% confidence limits), G3 Strain: topical, synergists 500 ng/insect four hours prior
# Experimental: Topical toxicity bioassays were performed on non-blood-fed adult female mosquitoes. The mosquitoes were chilled on ice for 1-3 minutes, during which 200 nL of compound (dissolved in 95% ethanol) was applied onto the abdomen of each insect with a handheld Hamilton® micro-applicator. […] […] The three resulting ED50 values were averaged. An ethanol-only treatment was included in each experiment as a negative control. Treated mosquitoes were transferred to small cages with access to 10% sucrose and held under rearing conditions for 24 h. Mortality was recorded at 24 h.
# [4] = tested on: Aphis gossypii; assay: aphid feeding on treated cotton leaves, electrophenegraph technique; format: in vivo; conditions: barium chloride at 300 micromolar
# Experimental: FIGS. 14(A) and (B) depict measurements of aphid (Aphis gossypi) feeding on cotton leaves, as measured through the electrophenegraph technique; on control leaves and on leaves treated with the Kir inhibitor barium, respectively.
# In aphids, a specific Kir channel blocker (barium chloride at 300 micromolar) was coated onto leaf tissue, and the feeding behavior of the adult aphid was analyzed through the classical electrophenegraph technique.
# [5] = tested on: An. gambiae; assay: blood meal processing, abdominal diameter; format: in vivo, Anopheles gambiae; conditions: topical, ED30 dose of VU041 after engorgement
# Experimental: Blood meal processing studies were performed with similar methods, with the exception that An. gambiae were blood-fed on anesthetized mice. All methods were carried out in accordance with Vanderbilt Institutional Animal Care and Use Committee approval. Upon completion of blood feeding, female mosquitoes with fully distended abdomens were selected, and 200 nL of compound at a non-lethal concentration (1 μg/mg) was applied directly to the abdomen. Any mosquito that died during the 24 h observation period was excluded from the analysis. Images of the abdomens were acquired at 0, 2, 5, 8, and 24 h through the dorsal cuticle; abdomens were measured at the widest point. Images were captured using bright-field illumination on a Nikon 90i light microscope (Nikon Corp., Tokyo, Japan) connected to a Photometrics CoolSNAP HQ2 high-sensitivity monochrome CCD camera (Roper Scientific, Ottobrunn, Germany). Digital images were acquired using Nikon Advanced Research NIS-Elements software. Mean abdominal diameters were compared using one-way ANOVA with a Tukey's post-hoc analysis (Prism 6, Graphpad Software, La Jolla, Calif.).
# [6] = target: AnKir1 (Anopheles gambiae, UniProt A0A075M2J8); assay: whole-cell patch clamp electrophysiology; format: cell-based
# Chain of AnKir1 (A0A075M2J8 1-555): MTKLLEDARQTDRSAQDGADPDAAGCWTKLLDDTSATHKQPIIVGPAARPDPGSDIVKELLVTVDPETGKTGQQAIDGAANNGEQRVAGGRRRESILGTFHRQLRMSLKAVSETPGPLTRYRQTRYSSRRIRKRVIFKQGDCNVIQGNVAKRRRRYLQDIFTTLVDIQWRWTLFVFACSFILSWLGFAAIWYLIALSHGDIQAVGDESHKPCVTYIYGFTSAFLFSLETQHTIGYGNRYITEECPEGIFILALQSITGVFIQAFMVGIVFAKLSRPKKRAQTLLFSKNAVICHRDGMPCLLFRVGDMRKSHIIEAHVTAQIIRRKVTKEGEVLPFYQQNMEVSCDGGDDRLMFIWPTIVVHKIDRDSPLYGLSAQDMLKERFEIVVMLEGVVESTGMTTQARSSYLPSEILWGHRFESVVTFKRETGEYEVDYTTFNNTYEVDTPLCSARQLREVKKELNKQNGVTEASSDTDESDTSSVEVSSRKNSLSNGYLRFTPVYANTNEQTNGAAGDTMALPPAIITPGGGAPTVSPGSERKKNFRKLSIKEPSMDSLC
# Experimental: Patch electrodes were pulled from silanized 1.5 mm outer diameter borosilicate microhematocrit tubes using a P-1000 Flaming/Brown micropipette puller (Sutter Instrument, Novato Calif., USA). Electrode resistance ranged from 2-4 MΩ. Whole-cell currents were recorded under voltage-clamp conditions using an Axopatch 200B amplifier (Molecular Devices, Sunnyvale, Calif.). Electrical connections to the amplifier used Ag/AgCl wires and 3 M KCl/agar bridges. Electrophysiological data were collected at 5 kHz and filtered at 1 kHz. Data acquisition and analysis were performed using pClamp 9.2 software (Axon Instruments).
# Transiently transfected HEK-293T cells expressing AnKir1 were voltage-clamped in the whole-cell configuration of the patch clamp technique. The extracellular bath solution contained (in mM): 135 NaCl, 5 KCl, 2 CaCl2), 1 MgCl2, 5 glucose, 10 HEPES free acid, pH 7.4, 290 mOsm/kg H2O. The pipette solution contained (in mM): 135 KCl, 2 MgCl2, 1 EGTA, 10 HEPES free acid, 2 Na2ATP (Roche, Indianapolis, Ind.), pH 7.3, 275 mOsm. Cells were voltage clamped at −75 mV, stepped to −120 mV for 200 msec, and then ramped to 120 mV at a rate of 2.4 mV/msec. Concentration-response curves (CRCs) were constructed by measuring the effects of increasing doses of inhibitors on AnKir1 currents at −120 mV. All recordings were made at room temperature (20-23° C.).
# [7] = whole-cell patch clamp, HEK-293T cells
smiles,measurement,setting,value
"O=C(Cn1nc(C(F)(F)F)c2c1CCCC2)N1CCCc2ccccc21 [VU041, 1-(3,4-dihydroquinolin-1(2H)-yl)-2-(3-(trifluoromethyl)-4,5,6,7-tetrahydro-1H-indazol-1-yl)ethan-1-one]",approximate ED50,"[1]; topical, LVP strain",~3.24 μg/mg mosquito
same,mortality in CAFE assay,[2],approximately 30%
same,reduction of total volume of sucrose solution ingested,[2]; 1 day PE,2.6 fold
same,reduction of total volume of sucrose solution ingested,[2]; 2 days PE,2.7 fold
same,reduction of total volume of sucrose solution ingested,[2]; 3 days PE,2.9 fold
same,reduction of total volume of sucrose solution ingested,[2]; 4 days PE,3.2 fold
same,EC50,"[2]; Drosophila melanogaster, 96 h, read-out: EC50 of reduction of sucrose consumption",68 µM
same,maximal reduction of volume of sucrose consumption,[2]; concentration-dependent,up to 3.2 fold
same,enhancement of toxicity by inhibition of CYP450s in the AKRON strain over the G3 strain,[3]; Akron strain,3 fold
same,enhancement of efficacy by PBO pretreatment,[3]; G3 strain,~3 fold
same,enhancement of toxicity by DEF pre-treatment,[3]; G3 strain,did not enhance toxicity
same,"ED50 (95% confidence limits), Akron Strain","[3]; 24 h, Akron strain",2.8 (2.1-4.1) A μg/mg
same,"ED50 (95% confidence limits), G3 Strain","[3]; 24 h, G3 strain",1.8 (0.9-3.1) A μg/mg
same,"feeding phases (egestion, salivation, ingestion)",[4],"No salivation was observed; also recorded: essentially completely inhibited egestion, salivation, and ingestion"
same,abdominal diameter over 24 h after blood feeding,[5],did not thereafter change much
same,Hill coefficient value,[6]; whole-cell patch clamp,1.3
same,IC50,[6]; [7],0.496 µM
O=C(Cn1nc(C(F)(F)F)c2c1CCCC2)NC1CCC1 [VU937],topical toxicity,[1]; adult females,not toxic
same,mortality in CAFE assay,[2],less than 10%
same,topical toxicity,"[3]; adult females, 24 h",not toxic
same,"ED50 (95% confidence limits), Akron Strain","[3]; 24 h, Akron strain",>10 µg/mg
same,"ED50 (95% confidence limits), G3 Strain","[3]; 24 h, G3 strain",>10 µg/mg
same,"feeding phases (egestion, salivation, ingestion)",[4],fed normally; also recorded: did not affect feeding
same,abdominal diameter over 24 h after blood feeding,[5],decreased significantly over 24 h
same,activity less than VU041,[6]; patch clamp,60 fold
same,IC50,[6]; whole-cell patch clamp,29.7 µM
same,IC50,[6]; [7],29.7 µM
